Source: patent publication US20170252362A1, “METHODS & COMPOUNDS USEFUL IN HEMATOPOIETIC STEM CELL MEDICINE” (ECOLE POLYTECHNIQUE FEDERALE DE LAUSANNE (EPFL), priority 2014, published 2017)

Columns and labels:
[1] = tested on: cultured HSCs; settings: flow cytometry
Experimental: NADH autofluorescence was measured by flow cytometry with UV laser (ex: 350 nm, em: 460 nm).
Specifically, culture conditions that would rapidly differentiate HSCs into highly proliferative MPPs were chosen and the effect of blocking the establishment of ΔΨm on the maintenance of stemness was investigated. For that purpose, trifluorocarbonylcyanide phenylhydrazone (FCCP) which permeabilizes the inner mitochondrial membrane and disrupts its potential was used as an uncoupling agent of the electron transport from ATP generation.

[2] = tested on: HSCs; settings: CFSE labeling, culture with FCCP
Experimental: Freshly sorted LT-HSCs were incubated for 20 min at 37° C. with 1:400 CFSE stock solution (Cayman chemicals; CFSE cell division assay kit). The cells were pelleted and re-suspended in 1 ml of Stemline II (Sigma) containing 10% FBS for 20 min at 37° C. Thereafter, the cells were washed twice with 1 ml of Stemline II (Sigma) and put in culture.

[3] = tested on: LT-HSC:TMRM^low cells; settings: 100 LT-HSC:TMRM^low cells, two days differentiation conditions with FCCP
Experimental: (§1) HSCs were cultured under ‘expansion’ conditions in U-bottom 96-well plates for five days. Cultures were maintained in Stemline II (Sigma) supplemented with 10 μg/ml Heparin (Sigma), 100 ng/ml SCF (R&D Systems), 2 ng/ml Flt3 ligand (R&D), 20 ng/ml TPO (R&D Systems), 10 ng/ml FGF-1 (Invitrogen), 500 ng/ml IGFBP2 (R&D Systems), 100 ng/ml AngL-3 (R&D Systems). At the end of the culture period cells were stained with TMRM and analyzed or sorted by flow cytometry. To induce differentiation, HSCs were cultured in basal medium (Stemline II containing 100 ng/ml SCF and 2 ng/ml Flt3 ligand) supplemented with 20 ng/ml IL-3 (R&D Systems) and 100 ng/ml IL-6 (R&D Systems).
(§2) In a first series of experiments, quantitative clonal differentiation assays (short- and long-term colony forming unit (CFU) assays as described above) were used to test to which extent mitochondrial uncoupling could influence the colony forming behavior and efficiency of hematopoietic stem and progenitor cells (FIG. 4A-C).
(§3) For some experiments, 5 or 10 μM Carbonyl cyanide 4-(trifluoromethoxy) phenylhydrazone (FCCP) (Sigma) was added at the medium. FCCP stock solution was prepared by dissolving the powder in ethanol at 10 mM concentration.

[4] = tested on: whole bone marrow cells; settings: differentiation conditions, two days with FCCP
Experimental: as §1, §2, §3

[5] = tested on: LT-HSC:TMRM^low cells; settings: five days differentiation condition (SCF, Flt3, IL-3, IL-6), 5 μM FCCP, progeny transplanted
Experimental: 100 LT-HSC:TMRM^low cells were cultured for five days under differentiation-inducing conditions in the presence or absence of 5 μM FCCP. Cell progeny were transplanted in lethally irradiated recipient mice together with 2*10^6 helper cells. Peripheral blood was collected at 4, 8 and 12 and 16 weeks to determine the level of chimerism as described above.
For transplants of HSC cultured exposed to the uncoupler FCCP, 100 LT-HSC:TMRM^low cells were cultured for five days under differentiation-inducing conditions in the presence or absence of 5 μM FCCP. Cell progeny were transplanted in lethally irradiated recipient mice together with 2*10^6 helper cells. Peripheral blood was collected at 4, 8 and 12 weeks to determine the level of chimerism.

[6] = tested on: hematopoietic stem and progenitor pool sizes in the bone marrow; assay: Flow cytometry analysis of hematopoietic stem and progenitor pool sizes in bone marrow of mice fed the agent; assay type: in vivo, mouse; settings: for hematopoietic stem and progenitor compartments in BM: 1 week treatment through the food
Experimental: Bone marrow (BM) cells were isolated from C57Bl/6J and C57Bl/6J Ly5.1 from crushed femora and tibia. Flow cytometry analysis of hematopoietic stem and progenitor cells was performed on freshly isolated bone marrow (BM). Cell suspensions were filtered through a 70 μm cell strainer and erythroid cells were eliminated by incubation with red blood cells lysis buffer (eBioscences). Lineage-positive cells were removed with a magnetic lineage depletion kit (Miltenyi Biotech). Cell suspensions were stained with a panel of specific antibodies for stem and progenitor cells and analyzed or FACS-sorted respectively on a BD LSRII and BD FACS Aria II.
(§4) C57Bl/6J and C57Bl/6J Ly5.1 were purchased from Charles River Laboratories International and maintained in micro-isolator cages. Mice were provided continuously with sterile food, water and bedding. Nicotinamide riboside (NR) (custom synthesized as triflate salt by Novalix in Strasbourg) was supplied in the food at 0.4 g/Kg mouse and mice were treated for 1 and 4 weeks respectively.

[7] = tested on: HSC mitochondrial activity; assay: In vivo assay of HSC mitochondrial activity: TMRM flow cytometry of freshly isolated HSC from mice fed the compounds; parameters: species or system mouse
Excerpt: The effect of agents on HSC mitochondrial activity has been assessed by measuring mitochondrial activity in vivo: freshly isolated HSC from mice fed with the compounds were stained by TMRM and analyzed by flow cytometry.

[8] = Konieczna et al., 2013; cited from earlier work
[9] = tested on: human hematopoiesis; assay: Human hematopoiesis in humanized NSG mice fed NR-supplemented diet; assay type: in vivo, human CD34+ cells in NSG mice; settings: supplemented diet for one week
Excerpt: NOD scid gamma (NSG) mice which are a mouse strain NOD Cg-Prkdcscid Il2rgtm1Wjl/SzJ (005557) which correspond to a mutant mouse which combines the features of the NOD/ShiLtJ background (conferring a number of deficiencies in innate immunity), the severe combined immune deficiency mutation (SCID) and an IL2 receptor gamma chain deficiency which disables cytokine signaling, were purchased from The Jackson Laboratory and bred, treated, and maintained under pathogen-free conditions in-house. New-born NSG mice were irradiated with 1Gy and 6 hours later injected intra-hepatically (IH) with 10e6 human CD34 HSCs (purified CD34+ from mobilized blood, Cellsystems Biotechnologie GmbH, Troisdorf, DE). The level of human reconstitution (% of human CD45+ cells) was analyzed 12 weeks later by FACS staining of tail vein blood samples. […] From the following day one cohort was given low fat food supplemented with NR as compared to the group treated with NA or Acipimox (n=10-12 mice/group), as indicated above, and the other cohort was given control diet. After seven days, tail vein blood was collected in EDTA tubes and mice sacrificed. Bone marrow cells were collected as described for C57BL6 mice, and both blood and bone marrow cells stained and analyzed for a panel of human lineage specific antibodies as described. […]

[10] = tested on: blood recovery and survival of transplanted mice; assay: Survival and blood recovery of lethally irradiated, transplanted mice treated with the agent; assay type: in vivo, mouse
Experimental: Given the dependency of differentiated hematopoietic cells to the progenitor compartments, the effect of a mitochondrial membrane potential reducing agent according to the invention, in particular NR, in improving blood recovery and survival of transplanted mice was assessed. Peripheral blood count started at day 13 after transplantation, and it was repeated every 3 or 4 days.
as §4

[11] = tested on: HSC mitochondrial activity; assay: In vitro HSC mitochondrial activity with JC1 and TMRM dyes; assay type: cell-based, mouse
Excerpt: The effects of NR on HSC mitochondrial activity has been assessed by measuring mitochondrial activity using JC1 (Mantel et al., 2010, Cell Cycle, 9(10), 2008-17) and TMRM dyes (Vannini et al., 2015, in preparation; Nakada et al., 2010, Nature, 468, 653-658).
The effect of agents on HSC mitochondrial activity has been assessed by measuring mitochondrial activity as described in Example 7 above.

[12] = tested on: hematopoietic progenitor compartments; assay: Colony-forming functional assay (CFUs, Methocult) on BM derived from agent-treated mice; assay type: in vivo, mouse
[13] = tested on: HSCs; assay: Single cell proliferation kinetics and division synchrony by time-lapse microscopy; assay type: cell-based, mouse; settings: single cell level
Experimental: Furthermore, at single cell level the effect of NR on cell proliferation kinetics was determined as described previously ([…] et al., 2012, supra). […] To follow the behavior of HSCs at single cell level, cells were sorted directly into 96-well plates coated with microwell arrays. Microwells containing a single cell at the time of plating were tracked by time-lapse microscopy. Proliferation kinetics were assessed using a Zeiss Axio Observer microscope equipped with an incubator chamber, temperature and CO2 control. Images were automatically acquired every three hours over five days using the imaging analysis software of MetaMorph (Visitron, Germany). Hydrogel microwell arrays were directly casted within individual wells of a 96-well plate as described (Kobel et al., 2009, Langmuir, 25(15):8774-9; Lutolf et al., 2009, Integr Biol (Camb), 1(1):59-69). Briefly, stoichiometrically balanced aqueous solutions of multi-arm poly(ethylene glycol) (PEG), end-functionalized with thiol and vinylsulfone groups were mixed and molded against a PDMS microstamp. Upon completion of crosslinking, the stamp was removed and the hydrogel microwell array was hydrated overnight at 4° C. and then sterilized with ultraviolet light.

[14] = tested on: HSC activity of donor bone marrow; assay: Transplantation of BM derived from agent-treated donor mice (engraftment, blood chimerism); assay type: in vivo, mouse
Excerpt: Therefore, NR-treatment is not expected to exhaust the LT-HSC population, which is often the problem when increasing short-term HSCs and their progeny.

## N#CC(C#N)=NNc1ccc(OC(F)(F)F)cc1 [FCCP, Carbonyl cyanide 4-(trifluoromethoxy)phenylhydrazone]
[1]
  NADH levels: decreased NADH levels
[2]
  divisional history (induction of quiescence): all cells in culture are rapidly dividing several times
[3]
  colonies derived from the most primitive cells (CFU-GEMM): concomitant increase
  frequency of colonies derived from the more committed progenitors (Mk, G, M and GM): striking decrease in the frequency of colonies
[4]; 15'000 whole bone marrow cells
  total number of colonies: striking decrease in the total number of colonies
[4]; whole bone marrow cells
  percentage of clonogenic multi-lineage colonies (CFU-GEMMs): increase in the percentage of clonogenic multi-lineage colonies
  percentage of colonies derived from more committed progenitors (M, GM): markedly decreased
[5]
  long-term multilineage blood reconstitution in recipient mice: dramatically higher levels of long-term multilineage blood reconstitution

## NC(=O)c1cccnc1 [NAM, Nicotinamide]
[6]; flow cytometry
  hematopoietic stem and progenitor compartments in BM: did not show significant expansion
[7]; mice fed with the compounds
  ability to reduce mitochondrial membrane potential in HSCs: not able to significantly reduce mitochondrial membrane potential in HSCs
[8]
  platelet levels in mice: did not increase the platelet levels

## NC(=O)c1ccc[n+]([C@@H]2O[C@H](CO)[C@@H](O)[C@H]2O)c1 [NR, nicotinamide riboside]
[9]
  human lymphocyte production: significant increase in lymphocyte production
  human monocyte production: trend towards increased monocyte production
[10]; Example 8, FIG. 9D, treated recipients versus control
  blood recovery of post-transplanted mice (platelets, granulocytes/neutrophils): faster exit of neutropenia and thrombocytopenia
[10]; limiting-dose transplanted mice, all untreated mice died within one month
  survival of transplanted mice: 80%
[10]; transplanted mice, on average
  exit of neutropenia (neutrophils >0.5 G/l) relative to controls: one week before controls
  recovery from severe thrombocytopenia (platelet count >100 G/l) earlier relative to control mice: 10 days
[10]; transplanted mice, peripheral blood counts from day 13
  neutrophil and platelet recovery: faster neutrophil and platelet recovery
[6]; flow cytometry
  hematopoietic stem and progenitor compartments in BM: increased cellularity is observed in all hematopoietic progenitor compartments
[6]; 4 weeks treatment through the food, flow cytometry
  hematopoietic progenitor compartments in BM: only the short-term compartment (ST-HSC) is expanded
[6]; Example 8, one week treatment, FIG. 9A
  number of hematopoietic stem cells (ST-HSC / most primitive HSC) by flow cytometry: expanded ST-HSC compartment
[6]; short- and long-term treatment
  HSC pool: not accompanied by a reduction of the HSC pool
[7]; freshly isolated HSC from fed mice, TMRM, FIG. 12
  number of short-term HSCs with low mitochondrial activity: able to push the number of short-term HSCs with low mitochondrial activity very significantly
[11]; HSCs exposed in vitro, JC1 and TMRM
  mitochondrial activity of HSCs: robust decrease in mitochondrial activity
[11]; dividing HSCs in vitro
  proportion of cells with low mitochondrial activity: raised the proportion of cells with low mitochondrial activity
[11]; in vitro, compared to control conditions
  percentage of cells with high mitochondrial activity: reduces the percentage of cells with high mitochondrial activity to half
[11]; in vitro, control about 5%
  percentage of HSC daughters that maintain a low mitochondrial activity: about 10%
[12]; 1 and 4 weeks treatment, especially short-term treated mice
  colonies in CFUs assay from BM of treated mice: confirmed the expansion of hematopoietic progenitor compartments
[12]; CFUs from BM of treated mice
  lineage of most striking colony increase: most striking in the Mk lineage
[12]; Example 8, FIG. 9B
  progenitor population / total and myeloid colonies in CFUs from BM of treated mice: expanded progenitor population
[13]
  asynchronous division: significant increase in asynchronous division
  proliferation kinetics: do not have a major change in their proliferation kinetics
[14]; 1-month treated donor mice, transplantation assay
  engraftment of BM derived from treated mice: do not show engraftment advantage
[14]; Example 8, FIG. 9C, compared to control group
  short-term HSC activity of transplanted BM from treated donors (blood chimerism): higher ST-HSC activity
